Data published in PMC6408838, “Bioassay-guided isolation and identification of gametocytocidal compounds from Artemisia afra (Asteraceae)” (Malaria Journal, 2019).
Converted amounts (≈) assume the structure as drawn. “And” between values parts separate entries of the source, which are not always exact repeats. Equal entries are not always repeated. Where two headings read alike, the source gives them in different places.

Columns and labels:
[1] = system: late-stage gametocytes of Plasmodium falciparum (NF54 strain); test: pLDH assay, late-stage gametocyte viability; type: cell-based; conditions: 72 + 72 h pLDH assay; for IC50: Plasmodium falciparum, NF54, 72 h
Method: (§1) The chloroquine-sensitive P. falciparum (NF54 strain) was cultured as described by […] et al. […] Gametocytogenesis initiation, induction and gametocyte culturing was done as described by Reader et al.. […] Both methylene blue (MB) and artemisinin (ART) was used as gametocytocidal drug controls and chloroquine for asexual drug control. Assay data were normalized against untreated Plasmodium parasites and HepG2 cell controls. […] Data were analysed on Microsoft Excel and sigmoidal dose-response curves were plotted using GraphPad Prism (v5). […] Statistical analysis was carried out on GraphPad Prism (v5) using unpaired Student-t test with a level of significance of P < 0.05.

[2] = LDH leakage cytotoxicity assay; type: cell-based; conditions: human, HepG2 cells; HepG2, LDH leakage, positive control, n = 3
Method: (§2) Cytotoxicity assays were assessed on the HepG2 cell line (20,000 cells/well) as previously described. […] was as used as cytotoxic positive control. Assay data were normalized against untreated Plasmodium parasites and HepG2 cell controls. […] Data were analysed on Microsoft Excel and sigmoidal dose-response curves were plotted using GraphPad Prism (v5). Unless otherwise stated, all data have been expressed as mean ± SEM (n ≥ 2, carried out in three technical repeats).

HepG2 cells = test: LDH leakage cytotoxicity assay; type: cell-based; conditions: for cytotoxicity (toxicity): HepG2, at 20 µg/ml; for In vitro cytotoxicity range: HepG2, concentrations of 2.5, 5, 10, and 20 µg/ml
Method: as §2

[3] = system: early-stage gametocytes (> 85% stage II–III) of P. falciparum (NF54 strain); test: pLDH assay, early-stage gametocyte viability; type: cell-based, Plasmodium falciparum; conditions: n = 3; for IC50 value, Early stage gametocytes: 1–2% gametocytaemia; for IC50: Plasmodium falciparum, NF54, 1–2% gametocytaemia
Method: as §1

[4] = system: intra-erythrocytic asexual P. falciparum (NF54 strain) parasites; test: pLDH assay, intra-erythrocytic asexual parasites; type: cell-based, Plasmodium falciparum; conditions: 1% parasitaemia; for IC50 value, Asexual stages: 72 h, n = 2; for IC50: Plasmodium falciparum, NF54, 72 h, n = 2, read-out: IC50 value, Asexual stages (converted)
Method: as §1

[5] = system: mature, stage-V gametocytes (> 90% stage V); design: method as in PMID 26749441; conditions: > 90% stage V gametocytes; cited from earlier work
[6] = unpaired assays, n = 1, technical triplicate, 10-fold serial dilution, read-out: IC50, late-stage gametocytes (drug controls)
[7] = 1–2% gametocytaemia, n = 3, read-out: IC50 value, Late stage gametocytes

| IC50 value, Asexual stages [4] | IC50 [4] | Structure (SMILES) | IC50 [1, 6] | IC50 value, Late stage gametocytes ([1]; 1–2% gametocytaemia, n = 3) | IC50 [1, 7] | IC50 value, Early stage gametocytes [3] | IC50 [3] | cytotoxicity (toxicity) (HepG2 cells) | In vitro cytotoxicity range (HepG2 cells) | other results |
| --- | --- | --- | --- | --- | --- | --- | --- | --- | --- | --- |
| – | – | CN(C)c1ccc2nc3ccc(=[N+](C)C)cc-3sc2c1 [Methylene blue, methylene blue, reference compound] | 0.031 µM | – | – | – | – | – | – | – |
| – | – | CC[C@H]1CN2CCc3cc(OC)c(OC)cc3[C@@H]2C[C@@H]1C[C@H]1NCCc2cc(OC)c(OC)cc21 [Emetine, reference compound] | – | – | – | – | – | – | – | EC50 [2]: 4.7 µg/mL (≈ 9.78 µM); cytotoxicity (HepG2 cells; HepG2, 100 µM, positive control): > 50% |
| 6.0 µg/mL (≈ 18.7 µM) | < 10 µg/mL and 18.7 µM | C=C1C(=O)O[C@H]2C1[C@@H](OC(C)=O)CC(=C)[C@]1(O)C=C[C@@](C)(O)[C@H]21 (stereo partly drawn) [Compound 1, 1α,4α-dihydroxybishopsolicepolide] | – | 2 µg/mL | 6.3 µM | 5.6 ± 0.2 µg/mL (≈ 17.5 µM) | 17.5 µM | < 10% | 0.03–9.47% | IC50 value, Late stage gametocytes ([1]; 1–2% gametocytaemia, n = 3, listed as 1α,4α-dihydroxybishopsolicepolide): < 10 µg/mL |
| 3.8 ± 1.2 µg/mL (≈ 11.3 µM) | 11.3 µM | C=C1C(=O)O[C@H]2[C@H]1[C@@H](OC(C)=O)C[C@@](C)(O)[C@@]13O[C@@H]1[C@@H]1O[C@]1(C)[C@H]23 [Compound 2, yomogiartemin] | – | 5.3 µg/mL | < 10 µg/mL and 15.8 µM | 4.4 ± 0.3 µg/mL (≈ 13.1 µM) | 13.1 µM | < 10% | 0.40–8.35% | IC50 value, Early stage gametocytes ([3]; listed as yomogiartemin): < 10 µg/mL; IC50 value, Asexual stages ([4]; listed as yomogiartemin): < 10 µg/mL |
| – | – | C[C@@H]1CC[C@H]2[C@@H](C)C(=O)O[C@@H]3O[C@@]4(C)CC[C@@H]1[C@]32OO4 [artemisinin, reference compound] | 0.057 µM | – | – | – | – | – | – | IC50 [5]: > 12.5 µM |
